What was measured:
[1] = tested on: Syrian hamster heart xenograft in rat; experiment: In vivo heart xenotransplantation (hamster-to-rat); details: 5-30 mg/kg/day orally
From the text: B. In vivo heart xenotransplantation (hamster-to-rat)
The hamster-into-rat xenograft combination is a so-called difficult concordant combination. […] This is visualized in histology by destruction of blood vessels, exsudation and extravasation of erythrocytes, and influx by polymorphonuclear granulocytes; often there are signs of hemorrhage and thrombosis. Once this rejection has been overcome by effective inhibition of antibody synthesis or complement inactivation, a cellular rejection can emerge later on. This is visualized in histology by influx of mononuclear cells, including lymphocytes, lymphoblastoid cells, and macrophages, and destruction of the myocyte parenchyma. The inhibition of cellular rejection requires more immuno-suppression than that of allografts. Congenitally athymic (rnu/rnu) rats lack a competent (thymus-dependent) cellular immune system and generally are unable to reject allografts. Such animals do reject a hamster xenograft within 3-4 days in a similar fashion as euthymic rats, indicative that (at least part of) anti-hamster antibody synthesis in rats occurs following a thymus-independent B-cell response. […]
The graft is monitored daily by palpation of the abdomen. […] Animals are subjected to autopsy; apart from the graft, weight and histology is assessed for thymus, spleen, liver, seminal vesicles and testes. […]

[2] = tested on: carotid artery allograft (DA donors, Lewis recipients); experiment: Prevention of graft vessel disease: carotid artery transplantation; type: in vivo, rat; details: 0.1 to 10 mg/kg alone or in combination with Cyclosporin A, 8 weeks, osmotic minipump s.c. or oral
Experimental: A. Prevention of Graft Vessel Disease
Inbred rat strains DA (RT1^a, donors) and Lewis (RT1^1, recipients of allografts), weighing between 200 and 350 grams are used. The animals are allowed unrestricted access to food and water before and after the operation.
Carotid artery transplantation:
The rats are anaesthetised with isofluorane (Abbott), (4-5% for induction, 1.5-2% for maintenance) and 300 μg atropin sulphate is injected subcutaneously following the induction. The left carotid artery is dissected free. The artery is clamped proximally and distally and a segment of about 7-10 mm is removed. The gap is bridged by an allograft which had also been subjected to 45 min cold ischemia. Ethilon 10/o sutures are used. Finally the skin is closed with 4/0 sutures. If needed, an Alzet osmotic minipump (Alza Corp. Palo Alto, Calif.) is then implanted subcutaneously over the back (alternatively the animals are treated orally).
The rats are subject to one of the following treatments: A compound of formula I alone at the doses of 0.1 to 10 mg/kg, or in combination with Cyclosporin A at the dose of 0.03, 0.3, or 1 mg.kg^−1·day^−1 is administered for 8 weeks either by using Alzet osmotic minipumps implanted subcutaneously or alternatively by oral administration. […]

SMILES: CCCCCCCCc1ccc(CCC(N)(CO)CO)cc1 [Compound A, 2-amino-2-[2-(4-octylphenyl)ethyl]-1,3-propanediol]
- graft survival ([1]; athymic recipients): prolonged graft survival
- graft survival ([1]; euthymic recipients): prolonged graft survival
- graft infiltration [2]: significantly inhibit
- neointima formation [2]: significantly inhibit

Reference: patent US6486209B2, “Use for 1,3-propanediol derivatives” (Novartis AG, priority 1996, dated 2002)
